Measured values published in patent US9464092B2, “Transient protection of normal cells during chemotherapy” (G1 Therapeutics, Inc., priority 2013, dated 2016).
Like-named read-outs stand apart in the source and are kept apart here.

Assays:
[1] = Mouse pharmacokinetics (oral gavage / intravenous); type: in vivo, mice; settings: mouse
CDK2/CyclinE = CDK2/CyclinE (Homo sapiens (Human), UniProt P24941); test: CDK2/CyclinE kinase assay (Nanosyn, Caliper microfluidic); type: biochemical; settings: for IC50: read-out: CDK2/CycE IC50
Protocol: (§1) Selected compounds disclosed herein were tested in CDK4/cyclinD1, CDK6/CycD3 CDK2/CycA and CDK2/cyclinE kinase assays by Nanosyn (Santa Clara, Calif.) to determine their inhibitory effect on these CDKs. The assays were performed using microfluidic kinase detection technology (Caliper Assay Platform). The compounds were tested in 12-point dose-response format in singlicate at Km for ATP. Phosphoacceptor substrate peptide concentration used was 1 μM for all assays and Staurosporine was used as the reference compound for all assays.

CDK2/CyclinA = CDK2/CyclinA (Homo sapiens (Human), UniProt P24941); test: CDK2/CyclinA kinase assay (Nanosyn, Caliper microfluidic); type: biochemical; settings: for IC50: read-out: CDK2/CycA IC50
Protocol: as §1, with “assays. Specifics of each assay are as described below:” for “assays.”
CDK2/CyclinA: Enzyme concentration: 0.2 nM; ATP concentration: 50 μM; Incubation time: 3 hr.

CDK4/CyclinD1 = CDK4/CyclinD1 (Homo sapiens (Human), UniProt P11802); test: CDK4/CyclinD1 kinase assay (Nanosyn, Caliper microfluidic); type: biochemical; settings: Table 2; read-out: CDK4/CycD1 IC50
Protocol: as §1, with “assays. Specifics of each assay are as described below:” for “assays.”
CDK4/CyclinD1: Enzyme concentration: 1 nM; ATP concentration: 200 μM; Incubation time: 10 hr.

CDK4/CyclinD1, sequence (P11802 whole entry, species assumed): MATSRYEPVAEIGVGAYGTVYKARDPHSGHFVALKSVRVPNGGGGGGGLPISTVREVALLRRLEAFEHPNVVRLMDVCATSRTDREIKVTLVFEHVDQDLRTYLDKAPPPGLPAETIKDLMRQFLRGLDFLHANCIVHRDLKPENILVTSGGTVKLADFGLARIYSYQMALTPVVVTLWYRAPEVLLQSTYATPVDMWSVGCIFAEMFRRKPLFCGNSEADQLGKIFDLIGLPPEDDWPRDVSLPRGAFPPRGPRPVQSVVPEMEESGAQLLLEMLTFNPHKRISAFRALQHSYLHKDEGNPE
CDK4/CyclinD1, sequence (P24385 whole entry partner, species assumed): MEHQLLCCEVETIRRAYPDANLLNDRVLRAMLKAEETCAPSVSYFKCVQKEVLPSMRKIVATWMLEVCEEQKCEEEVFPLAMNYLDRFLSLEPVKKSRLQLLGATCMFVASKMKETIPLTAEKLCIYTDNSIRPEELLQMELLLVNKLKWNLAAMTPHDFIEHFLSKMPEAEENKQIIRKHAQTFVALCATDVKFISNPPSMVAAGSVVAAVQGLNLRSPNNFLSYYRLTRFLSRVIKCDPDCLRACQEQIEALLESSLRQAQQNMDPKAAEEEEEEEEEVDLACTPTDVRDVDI

SMILES | IC50 (CDK2/CyclinE; Table 2) [nM] | IC50 (CDK2/CyclinA; Table 2) [nM] | IC50 (CDK4/CyclinD1) [nM] | Fold Selectivity (CDK2/CycE/CDK4) (CDK2/CyclinE; Table 2) | Fold Selectivity (CDK2/CycA/CDK4) (CDK2/CyclinA; Table 2) | other results
O=C1NCC2(CCCCC2)n2c1cc1cnc(Nc3ccc(N4CCC(N5CCOCC5)CC4)cn3)nc12 [Compound U, 2′-((5-(4-morpholinopiperidin-1-yl)pyridin-2-yl)amino)-7′,8′-dihydro-6′H-spiro[cyclohexane-1,9′-pyrazino[1′,2′:1,5]pyrrolo[2,3-d]pyrimidin]-6′-one] | 1460 | 857 | – | – | – | F [1]: 67%; half-life ([1]; plasma, po, 30 mg/kg, 30 mg/kg oral gavage, read-out: t1/2 p.o. (converted)): 3 h; half-life ([1]; plasma, po, 30 mg/kg, read-out: plasma half-life following oral administration): 3 to 5 h; bioavailability ([1]; plasma, po, 30 mg/kg, read-out: oral bioavailability (F (%))): 52 to 80%; AUC(0-inf) ([1]; plasma, iv, 10 mg/kg i.v.): 0.76 µM·h; clearance ([1]; plasma, iv, 10 mg/kg i.v.): 52 mL/min/kg; Vd ([1]; plasma, iv, 10 mg/kg i.v., read-out: Vss): 3.4 L/kg; AUC ([1]; plasma, 30 mg/kg oral gavage): 3.3 µM·h; Cmax ([1]; plasma, 30 mg/kg oral gavage): 4.2 µM; Tmax ([1]; plasma, 30 mg/kg oral gavage): 0.5 h; IC50 (CDK2/CyclinE; Table 3): 1460 nM; IC50 (CDK2/CyclinA; Table 3): 857 nM
C[C@@H]1CN(c2ccc(Nc3ncc4cc5n(c4n3)C3(CCCCC3)CNC5=O)nc2)CCN1C [NN] | 4700 | 1560 | 3.7 | 1274 | 423 | –
CC1CN(c2ccc(Nc3ncc4cc5n(c4n3)C3(CCCC3)CNC5=O)nc2)CCN1CC1CC1 (stereo not drawn) [NNN] | 2930 | 1010 | 1.4 | 2154 | 743 | –
C[C@H](O)CN1CCN(c2ccc(Nc3ncc4cc5n(c4n3)C3(CCCCC3)CNC5=O)nc2)CC1 [A] | 6350 | 3160 | 4.2 | 1516 | 754 | –
C[C@H](O)CN1[C@H](C)CN(c2ccc(Nc3ncc4cc5n(c4n3)C3(CCCCC3)CNC5=O)nc2)C[C@@H]1C [Z] | 3710 | 647 | 3.2 | 1174 | 205 | –
O=C1NCC2(CCCCC2)n2c1cc1cnc(Nc3ccc(N4CCN(C5CCC5)CC4)cn3)nc12 [F] | 628 | 190 | 1.5 | 419 | 127 | –
CC1(C)CN(c2ccc(Nc3ncc4cc5n(c4n3)C3(CCCCC3)CNC5=O)nc2)CCN1C1CC1 [BB] | 1680 | 502 | 0.8 | 2017 | 603 | –
O=C1NCC2(CCCCC2)n2c1cc1cnc(Nc3ccc(N4CCN(CC5CC5)CC4)cn3)nc12 [HH] | 1280 | 265 | 1.7 | 766 | 159 | –
O=C1NCC2(CCCC2)n2c1cc1cnc(Nc3ccc(C(=O)N4CCN(CC5CC5)CC4)cn3)nc12 [OOO] | 393 | 203 | 2.4 | 164 | 85 | –
CC(C)N1CCN(C(=O)c2ccc(Nc3ncc4cc5n(c4n3)C3(CCCCC3)CNC5=O)nc2)CC1 [II] | 367 | 239 | 2 | 184 | 120 | –
C[C@@H]1CN(c2ccc(Nc3ncc4cc5n(c4n3)C3(CCCCC3)CNC5=O)nc2)C[C@H](C)N1 [P] | 3560 | 1010 | 3.3 | 1085 | 308 | –
C[C@@H]1CN(c2ccc(Nc3ncc4cc5n(c4n3)C3(CCCCC3)CNC5=O)nc2)CCN1 [V] | 3500 | 2130 | 2.9 | 1224 | 745 | –
CCOCCN1CCN(c2ccc(Nc3ncc4cc5n(c4n3)C3(CCCC3)CNC5=O)nc2)CC1 [MMM] | 1890 | 990 | 3.2 | 600 | 314 | –
CC1CCN(C2CCN(c3ccc(Nc4ncc5cc6n(c5n4)C4(CCCCC4)CNC6=O)nc3)CC2)C1 (stereo not drawn) [K] | 1070 | 738 | 1 | 1019 | 703 | –
C[C@H](O)CN1CCN(c2ccc(Nc3ncc4cc5n(c4n3)C3(CCCC3)CNC5=O)nc2)C[C@H]1C [XX] | 7300 | 6290 | 1.3 | 5615 | 4838 | –
CC(C)N1CCN(c2ccc(Nc3ncc4cc5n(c4n3)C3(CCCCC3)CNC5=O)nc2)C[C@@H]1C [AA] | 6100 | 4630 | 0.5 | 13319 | 10109 | –
C[C@@H]1CN(c2ccc(Nc3ncc4cc5n(c4n3)C3(CCCCC3)CNC5=O)nc2)C[C@H](C)N1C [DD] | 9620 | 8360 | 1.9 | 5200 | 4519 | –
CC(C)(C)CCN1CCN(c2ccc(Nc3ncc4cc5n(c4n3)C3(CCCC3)CNC5=O)nc2)CC1 [KKK] | 291 | 87.3 | 1.3 | 231 | 69 | –
C[C@H]1CN(c2ccc(Nc3ncc4cc5n(c4n3)C3(CCCCC3)CNC5=O)nc2)CCN1C [R] | 1920 | 1360 | 0.5 | 3918 | 2776 | –
C[C@H]1CN(c2ccc(Nc3ncc4cc5n(c4n3)C3(CCCCC3)CNC5=O)nc2)CCN1CC1CC1 [B] | 3040 | 1890 | 0.4 | 6862 | 4266 | –
CC(C)(C)CCN1CCN(c2ccc(Nc3ncc4cc5n(c4n3)C3(CCCC3)CNC5=O)nc2)CC1(C)C [CCC] | 2170 | 457 | 2 | 1074 | 226 | –
O=C1NCC2(CCCCC2)n2c1cc1cnc(Nc3ccc(C(=O)N4CCN(C5CCC5)CC4)cn3)nc12 [LL] | 202 | 108 | 2 | 103 | 55 | –
CN(C)C1CCN(c2ccc(Nc3ncc4cc5n(c4n3)C3(CCCCC3)CNC5=O)nn2)CC1 [SS] | 1460 | 1390 | 0.8 | 1865 | 1775 | –
O=C1NCC2(CCCC2)n2c1cc1cnc(Nc3ccc(N4CCOCC4)nn3)nc12 [SSS] | 2280 | 1880 | 2 | 1112 | 917 | –
CCN1[C@H](C)CN(c2ccc(Nc3ncc4cc5n(c4n3)C3(CCCCC3)CNC5=O)nc2)C[C@@H]1C [FF] | 4620 | 1400 | 1.2 | 3949 | 1197 | –
CC(C)N1CCN(c2ccc(Nc3ncc4cc5n(c4n3)C3(CCCCC3)CNC5=O)nc2)CC1C (stereo not drawn) [PP] | 3600 | 3090 | 3.1 | 1146 | 984 | –
CC1CN(c2ccc(Nc3ncc4cc5n(c4n3)C3(CCCCC3)CNC5=O)nc2)CCN1CCC(C)(C)C (stereo not drawn) [G] | 2580 | 646 | 1.5 | 1767 | 442 | –
